From patent EP0034752A1, “Phenoxyalkane derivative and processes for preparing same” (Tanabe Seiyaku Co., Ltd., priority 1980, dated 1981)

Tests used:
[1] = Maximum tolerated dose, i.p.; set-up: species or system mice; conditions: mouse, in vivo, ip
[2] = tested on: central nervous system in mice; experiment: Effect on spontaneous motor activity in mice; assay type: in vivo; conditions: Mus musculus, ip, 0.5 h; i.p., male mice; activity measured 30 minutes after administration; dose decreasing activity by 50 % of control; read-out: Effect on central nervous system (ED50, mg/kg) spontaneous mortor activity
Experimental: (§1) The effect of a test compound on central nervous system was examined by the following methods.
(1) Effect on spontaneous mortor activity:
A solution or suspension of a test compound in water or an aqueous carboxymethylcellulose solution was administered intraperitoneally to male mice weighing 18 to 20 g (each group consisting of 5 mice). Thirty minutes after administration of the test compound, the spontaneous mortor activity of the mice was measured with an animex activity meter for 5 minutes. The 50 % effective dose (ED50) of the test compound was estimated in terms of a dose which is necessary to decrease the mortor activity of the medicated mice by 50 % of that of a control group (i.e., non-medicated mice).

[3] = tested on: central nervous system in mice; experiment: Anti-apomorphine activity (cage climbing) in mice; assay type: in vivo; conditions: Mus musculus, ip, 0.5 h; i.p., male mice; apomorphine hydrochloride 2.5 mg/kg s.c. 30 minutes later; dose decreasing number of climbing mice by 50 %; read-out: Effect on central nervous system (ED50, mg/kg) Anti-apomorphine activity
Experimental: as §1
(3) Anti-apomorphine activity:
A solution or suspension of a test compound in water or an aqueous carboxymethylcellulose solution was administered intraperitoneally to male mice weighing 18 to 20 g (each group consisting of 5 mice). Thirty minutes after administration of the test compound, apomorphine hydrochloride (2.5 mg/kg) was administered subcutaneously to the mice, and the number of the mice which could climb a cage was examined. The 50 % effective dose (ED50) of the test compound was estimated in terms of a dose which is necessary to decrease the number of the medicated mice which could climb the cage by 50 % of the number of a control group (i.e., non-medicated mice) which could climb the cage.

[4] = tested on: central nervous system in mice; experiment: Effect on sodium hexobarbital-induced anesthesia in mice; assay type: in vivo; conditions: Mus musculus, ip, 0.5 h, male mice; sodium hexobarbital 100 mg/kg i.p. 30 minutes later; dose prolonging sleeping time twice that of control
Experimental: as §1
(2) Effect on sodium hexobarbital-induced anesthesia:
A solution or suspension of a test compound in water or an aqueous carboxymethylcellulose solution was administered intraperitoneally to male mice weighing 18 to 20 g (each group consisting of 5 mice). Thirty minutes after intraperitoneal administration of the test compound, sodium hexobarbital (100 mg/kg) was administered intraperitoneally to the mice, and the sleeping time was measured as the interval between the loss and recovery of the righting reflex. The 50.% effective dose (ED50) of the test compound was estimated in terms of dose which is necessary to prolong the sleeping time of the medicated mice twice as long as that of a control group (i.e., non-medicated mice).

[5] = tested on: intracranial pressure in rats; experiment: Effect of i.v. injection of test compounds on intracranial pressure in rats; assay type: in vivo; conditions: for Change (%) in intra-cranial pressure: dose one mg/kg, i.v. infusion in 5 w/v % mannitol, anesthetized male SD-rats, value before administration = 100
Experimental: (Effect of i.v., injection of test compounds on intracranial pressure in rats)
Male SD-rats weighing 500 to 800 g (each group consisting of 5 rats) were anesthetized with urethane. A solution of a test compound in an aqueous 5 w/v % mannitol solution was infused via the femoral vein at a rate of 0.2 ml/kg/minute for 20 minutes (when the test compound was used in the form of free base, said solution was prepared by dissolving it in an aqueous 5 w/v % mannitol solution with the aid of 0.5 N hydrochloric acid). Intracranial pressure (i.e., cerebrospinal fluid pressure in the cisterna magna) was continuously monitored via a canula introduced in the cisterna magna. The canula was connected to a transducer, and recording were made on graph paper. The effect of the test compound on-the intracranial pressure was estimated in terms of the increase or decrease in intracranial pressure, which was calculated in accordance with the following formula: […]

[6] = 40 minutes after administration
[7] = 60 minutes after administration
[8] = 120 minutes after administration

Row | SMILES | MTD [1] [mg/kg] | ED50 [2] [mg/kg] | ED50 [3] [mg/kg] | ED50 [4] [mg/kg] | Change (%) in intra-cranial pressure [5, 6] [%] | Change (%) in intra-cranial pressure [5, 7] [%] | Change (%) in intra-cranial pressure [5, 8] [%] | decrease in the intracranial pressure ([5]; 40 minutes after administration, dose 1 mg/kg, infused via the femoral vein of rats in 5 w/v % mannitol for 20 minutes)
1 | COc1cc(NC(C)=O)ccc1COCCCN1CCN(c2ccccc2)CC1 [1-(4-acetamido-2-methoxybenzyloxy)-3-(4-phenylpiperazino)-n-propane] | 100 | 5 | 7 | 10 |  |  |  | 
2 | COc1cc(NC(C)=O)ccc1OCCCN1CCC(O)(c2ccc(Cl)cc2)CC1 [1-(4-acetamido-2-methoxyphenoxy)-3-[4-(4-chlorophenyl)-4-hydroxy-piperidino]-n-propane] |  |  |  |  | 94.2 | 95.4 | 90.7 | 
3 | CC(=O)Nc1ccc(COCCCN2CCN(c3ccccc3)CC2)cc1 [1-(4-acetamidobenzyloxy)-3-(4-phenylpiperazino)-n-propane] |  |  |  |  | 77.0 | 83.1 | 97.9 | about 23%
4 | COc1cc(NC(C)=O)ccc1OCC(C)CN1CCN(c2ccccc2)CC1 (centres unmarked) [1-(4-acetamido-2-methoxyphenoxy)-3-(4-phenylpiperazino)-2-methyl-n-propane] |  |  |  |  | 66.4 | 73.8 | 83.8 | 
